What was measured:
[1] = system: corn (Zea mays) seedlings (Pioneer 3514); assay: Neural network recognition of treatment from 1H NMR spectra of corn seedling extracts (training/validation cycle); assay type: in vivo; conditions: for Network Recognition: validation set sel4c.pat, NN trained with 15 spectra (sel4.pat), meristematic tissue harvested 24 hours after treatment
Procedure: For example, corn (Zea mays) seeds (Pioneer 3514) were set to germinate in paper towel rolls in tap water covered with plastic foil (to minimize evaporation) for 5 days in the growing chamber. Conditions were adjusted to “summer days” (day/night 14/10 hours, controlled temperature 27° C. and humidity 70%). After germination the seedlings were visually inspected. Seedlings that were homogeneous in size and appearance were selected and set to grow in hydroponic Hoagland culture solution.
Each seedling was set in a 50 mL dark bottle in 25 mL Hoagland nutrient solution. The plants were then grown for 5 more days after they had reached the three-leaf stage. At this point the hydroponic solution was changed and the seedlings were treated as follows:
Different herbicide stock solutions in acetone were added in concentrated form to the hydroponic solution or, in the case of control plants with 20 μL acetone, or
The hydroponic solution was replaced by a solution containing different concentrations of herbicides, or just hydroponic nutrient solution for control plants.
All herbicides were technical grade. The plants were returned to the growing chamber after treatment. After 24 hours, the plants were harvested by excising between the coleoptile and the first leaf collar. The first leaf sheet was separated and the meristematic tissue collected was flash frozen in liquid nitrogen in a cryogenic 3 ml tube and stored in the liquid nitrogen freezer until further use.
For example, frozen meristematic tissue was placed in a mortar and liquid nitrogen was added. The pestle was also allowed to cool in the liquid nitrogen. When the liquid nitrogen was evaporated, the plant tissue was pulverized in the mortar. Then, 2.4 mL of 0.25N aq. HCl solution were added to the mortar and the sample was further mixed with the pestle. The suspension was placed into an Eppendorf centrifuge tube and set in ice until all the samples for an experiment were processed for centrifugation. The samples were centrifuged at 14000 g, at 4° C., for 60 minutes. The supernatant was separated from the pellet and 0.8 mL taken and mixed with 0.2 mL D2O (with TSP 0.05 w/v for NMR reference) for the lock signal in the spectrometer. The samples were kept in ice until NMR measurement.
(§1) The proton NMR spectra of plant extracts were recorded using a Bruker AMX 500 NMR spectrometer equipped with a TXI 5 mm probe. The probe temperature was carefully regulated to better than ±0.1 K using the Bruker/Haake variable temperature accessory, and all spectra were recorded under identical experimental conditions, as follows:
The NMR spectra were multiplied with an exponential function (LB parameter=0.5 Hz), Fourier transformed, and manually phase- and baseline-corrected. Spectra were, in an automatic fashion, exported into JCAMP-DX format and converted into pattern vectors for pattern recognition approaches. A window of points was removed from the central part of each vector prior to analysis, to avoid the water residual signal as shown in FIG. 2. Also, data points were removed at the low field and high field portions of the spectral vector because no resonance signals were detectable in these regions.
A first set of 71 spectra, with 3 batches of 6-9 control samples, 2 batches with 15 PURSUIT® treated samples, and one batch each with 6(4) Sethoxydim, Glyphosate, and Diuron treated samples. Two plants fouled after the herbicide treatment phase, and were treated as separate category, exemplifying samples with very different properties. […]

[2] = system: Corn plants (Zea mays), Pioneer 3514; assay: Herbicide mode-of-action recognition by 1H NMR of plant isolates and neural network analysis (Example 8); assay type: in vivo; conditions: for output unit activation: small NN trained with first batch, tested on second batch, four herbicide groups and control; for herbicide treatment group assigned by the neural network: chemically different AHAS inhibitors, output unit activation vs. treatment group
Procedure: Zea mays seeds (Pioneer 3514) were set to germinate in paper towel rolls in tap water for 5 days in the growing chamber. The environment was adjusted to “summer conditions” (day/night ratio of 14/10 hours, regulated temperature of 27° C. and humidity of 70%). After germination the seedlings were visually inspected. Seedlings that were homogeneous in size and appearance were selected, set in 50-ml amber bottles in 25-ml Hoagland nutrient solution (12 ml micronutrients stock solution, 12 ml FeEDTA (5 g/100 ml), 2.4 ml KH2PO4 (1 M), 24 ml MgSO4 (1 M), 60 ml KNO3 (1 M), 60 ml Ca(NO3)2 (1 M), and 60 ml MES buffer (200 mM), diluted to 12 litre with deionized water) and grown for 5 more days, after which they reached the three-leaf stage. At this point, 20 μl of a stock solution of technical grade herbicide in acetone (see Table I) was added to the hydroponic solution or applied to the second leaf (with similar results). The control group of “Untreated Plants” received 20 μl acetone only and all of the plants were returned to the growing chamber.
Twenty-four hours post-treatment, the plants were harvested by excising between the coleoptile and the first leaf collar. At this time, the plants show only slight growth stunting in response to the treatments. The first leaf sheet was separated and the meristematic tissue (approximately 250 to 300 mg per plant) was collected, flash frozen in liquid nitrogen in a cryogenic 3 ml tube, and stored in a liquid nitrogen freezer until further use. The plant meristems were each pulverized in a mortar (under liquid N2), suspended in 2.4 ml of HCl solution (0.25N) and centrifuged at 14000 g, 4° C., for 60 minutes. The NMR samples were prepared from 0.8 ml of the supernatants and 0.2 ml D2O (with TSP 0.05 w/v) and kept on ice.
as §1, with “500 MHz ^1H” for “proton”, “regulated” for “regulated to better than ±0.1 K”, “shown in Table 10:” for “follows:”
The time-domain NMR spectra (“FIDs”) were exponential multiplied (LB=0.5 Hz), Fourier transformed, and then phase- and baseline-corrected manually. The frequency domain were exported by the NMR software as J-CAMP formatted files, which were stored in a UNIX subdirectory for “preprocessing” via NN_Tools, as described below.
The frequency domain NMR spectra were “preprocessed” by NN_Tools as follows: J-CAMP formatted spectra files were converted into vectors (8 k real data points), and the files were renamed (renumbered) in order to be processed by further programs in an automatic fashion. A window of points was cut from the central part (around O1) of each vector to delete the residual water signal. Then points were cut from the low field and high field parts of the vector, because no resonance signals were detectable in these regions. Groups of typically five (5) adjacent points were averaged in histogram fashion (“bining”) and the resulting “preprocessed” spectrum comprised 1080 data points. Finally, vertical scaling was applied to meet the signal amplitude requirements of the neural network software.
The artificial neural network calculations described in the report were performed using a standard software package, the Stuttgart Neural Network Simulator (SNNS), on a Silicon Graphics Inc. (SGI) UNIX workstation. A convenient interface called NN_Tools, was developed in-house to perform NMR spectral preprocessing and to format the raw data for input to SNNS. NN_Tools comprises a set of Perl scripts which form patterns out of NMR spectra that can be input automatically to SNNS for the training, validation, and testing steps of neural network simulation. This free software package (“freeware”) was developed at the Institute for Parallel and Distributed High Performance Systems at the University of Stuttgart, Germany. […]

[3] = system: corn (Zea mays) seedlings; assay: Blind test: NN recognition of mode-of-action of herbicides not used in training; assay type: in vivo; conditions: NN trained only with untreated, PURSUIT, Diuron, Sethoxydim, Glyphosate; different herbicide concentrations
Procedure: As an example, we have used the NN trained and validated as shown in the above Example 3. It was trained to recognize untreated, PURSUIT®, Diuron, Sethoxydim, and Glyphosate treatment. In a blind test, we presented pattern from samples that were treated with no herbicide or different concentrations of various herbicides. In addition to the herbicides used in the training set, two other imidazolinones: ASSERT® and ARSENAL® (imazapyr and imazamethabenz) and two sulfonylureas GLEAN® and OUST® (chlorsulfuron and sulfometuron) were chosen, and the plants were treated as described above. For the blind test of the ANN analysis tool the samples only the two first to batches contributed samples to the training set. Thereby, the neuronal network had to truly recognized new batches with many samples having compound treatments applied that were unknown to the NN. In summary, we found a complete success of the methodology: The neuronal network classifies all untreated samples correctly as untreated, assigns the correct herbicide treatment for all herbicides that have been previously presented to the NN during training, even if such samples originated from batches that were not part of the NN training.
Note that the learning output target for the test spectra is zero in all cases in FIG. 4a and 4b. The total SSE in the calculation was high because of the difference between the given output value (zero) and the calculated value, but the spectra were correctly classified in all cases as belonging to the second output node, which is imazethapyr or AHAS inhibition. Similar results were obtained for the second set of experiments.

[4] = system: WT corn (Pioneer 3514, PURSUIT sensitive); assay: Phenotypic response of corn lines to PURSUIT in hydroponic medium, wild type line; assay type: in vivo, Zea mays
Procedure: In these experiments, seedlings from three genetically different corn seed lines were germinated, grown in hydroponic medium, excised, extracted and measured as described before. The plants belong to “wild type” (WT, Pioneer 3514, PURSUIT® sensitive), imidazolinone-tolerant (IT, Gerst 8541 heterozygotic, PURSUIT® tolerant), and imidazolinone-resistant (IR, Pioneer 3395, homozygotic, PURSUIT® resistant) lines.
Two batches with five seedlings each from WT, IR, and IT lines, were grown at various levels of PURSUIT® concentration, as follows in Table 5:
The different lines of corn can be distinguished phenotypically at growing levels of herbicide treatment. […] For WT, herbicidal effects are already observed at the lowest (41 μM) PURSUIT® concentration. On the other hand even the IR lines are affected by concentrations of imidazolinones so high as 4 mM. The plants were harvested after only 24 hours after treatment such that phenotypic differences were restricted to the development (or lack) of the fourth leaf. It is important to harvest at an early stage to avoid that the plants become senescent. The senescence process produces accumulation of a series of metabolites that would obscure the metabolic profile response associated with one specific mode of action.

[5] = system: IR corn (Pioneer 3395, homozygotic, PURSUIT resistant); conditions: saturated solution of PURSUIT; cited from earlier work

Compound | Network Recognition [1] | output unit activation [2] | NN classification of treatment / mode-of-action in blind test [3] | herbicide treatment group assigned by the neural network [2] | other results
O=C(O)CNCP(=O)(O)O [Glyphosate] | Glyphosate | ~1 |  |  | 
CC(NC(=O)C(C)NC(=O)C(N)CCP(C)(=O)O)C(=O)O (stereo not drawn) [Bialaphos] |  |  |  |  | signs of damage of treated plants ([2]; 24-hours post-application, bialaphos formulation): # presented much stronger signs of damage than all the others. Formulations usually produce an effect of faster absorption and sometimes translocation that increases the metabolic response.
CC(C)C1(C)N=C(c2ncccc2C(=O)O)NC1=O (stereo not drawn) [ARSENAL®, imazapyr] |  |  | correctly assigned as AHAS inhibitors | imazethapyr | 
CN(C)C(=O)Nc1ccc(Cl)c(Cl)c1 [Diuron] | Diuron | ~1 |  |  | NMR spectral changes of treated samples versus controls ([1]; 1H NMR of corn seedling extracts): most changes versus controls in the resonance region of the sugar-proton
CCC/C(=N\OCC)C1=C(O)CC(CC(C)SCC)CC1=O (stereo not drawn) [Sethoxydim] | Sethoxydim | ~1 |  |  | 
CCc1cnc(C2=NC(C)(C(C)C)C(=O)N2)c(C(=O)O)c1 (stereo not drawn) [PURSUIT ®, imazethapyr] | PURSUIT ® | ~1 |  |  | PURSUIT concentration at which herbicidal effects are observed ([4]; WT line, lowest concentration tested, hydroponic): ≤ 41 µM; phenotypic response observed ([4]; growing levels of herbicide treatment, within 48 hours): total arrest on the growth of the plants and their wilting; phenotypic response of IR plants [5]: growth arrest
imazamethabenz [ASSERT®] |  |  | correctly assigned as AHAS inhibitors | imazethapyr | 
Cc1cc(C)nc(NC(=O)NS(=O)(=O)c2ccccc2C(=O)O)n1 [OUST®, sulfometuron] |  |  | correctly assigned as AHAS inhibitors | imazethapyr | 
COc1nc(C)nc(NC(=O)NS(=O)(=O)c2ccccc2Cl)n1 [GLEAN®, chlorsulfuron] |  |  | correctly assigned as AHAS inhibitors | imazethapyr | 
